# Measurements from patent US11358947B2, “Substituted 2-acylamino-cycloalkylthiophene-3-carboxylic acid arylamides as inhibitors of calcium-activated chloride channel TMEM16A” (THE REGENTS OF THE UNIVERSITY OF CALIFORNIA, priority 2017, dated 2022).
# Entries after “also recorded” stand apart in the source; their conditions may differ.
# How the values were obtained:
# [1] = In vitro metabolic stability with rat liver microsomes and NADPH; type: in vitro ADME
# Experimental: (3B) LC/MS traces showing total ion counts as a function of incubation time.
# These compounds were incubated with rat liver microsomes and NADPH, and non-metabolized compounds were quantified by ESI-LCMS. […] It is speculated that Ani-9 could be oxidized at the aryl methyl or N—N bond; or hydrolyzed at the amide or hydrazone linkages.
# Compounds (each 10 uM) were incubated for specific time points (2, 5, 15, 30, 60, 180 min) with shaking at 37° C. with rat liver microsomes (1 mg protein/mL, Sigma-Aldrich, St. Louis, Mo.) in potassium phosphate butler (100 mM) containing 1 mM NADPH. The mixture was then chilled on ice, and 0.5 mL of ice-cold ethyl acetate was added. Samples were centrifuged for 15 min at 3000 RPM. The supernatant was evaporated to dryness, and the residue was dissolved in 80 μL of mobile phase (acetonitrile:/water, 3:1, containing 0.1% formic acid) for LC/MS. Reverse-phase HPLC separation was carried out using a Waters C18 column (2.1 mm×100 mm, […]) equipped with a solvent delivery system (Waters model 2690, Milford, Mass.).
# [2] = test system: rat made hypertensive with phenylephrine; experiment: Blood pressure in anesthetized rat made hypertensive with phenylephrine; type: in vivo; conditions: phenylephrine 0.25 mg IV, then 0.3 mg compound IV, femoral artery catheter
# Experimental: TMEM16A is expressed in vascular smooth muscle and its inhibition may reduce blood pressure. […] Blood pressure was measured by femoral artery catheter.
# mouse ileum = experiment: Ex vivo intestinal contractility of mouse ileum; conditions: increasing concentrations added to bath
# Experimental: The effect of a compound according to one embodiment on intestinal contractility was determined in an ex vivo preparation of mouse ileum. Adult mice (CD1 genetic background) were euthanized by avertin overdose (200 mg/kg, 2,2,2-tribromethanol, Sigma-Aldrich) and ileal segments of ˜2 cm length were isolated and washed with Krebs-Henseleit buffer (pH 7.4, in mM: 118 NaCl, 4.7 KCl, 1.2 MgSO4, 1.2 KH2PO4, 25 NaHCO3, 2.5 CaCl2, 11 D-glucose). […] Tissues were stabilized for 60 min with resting tension of 0.5 g and solutions were changed every 15 min.
# [3] = Pharmacokinetics in rats, serum concentration after IP or oral dosing; type: in vivo; conditions: rat
# Experimental: The pharmacokinetics of compounds according to certain embodiments was studied in rats. […] After treatments blood samples were collected by tail vein puncture at specified time points (15, 30, 60, 120 and 180 min). Serum was separated by centrifuging blood samples at 5000 rpm for 15 min. […] The aliquot was then diluted to a total of 2 mL in PBS. A C18 solid-phase extraction (SPE) column (Thermo Fisher, Waltham, Mass.) was conditioned with methanol (2 mL) and PBS (2 mL). The aliquot was loaded onto the conditioned SPE column, and washed with PBS (2 mL) followed by water (2 mL), and the column then dried under vacuum for 5 min. Analytes were eluted with ethyl acetate (3 mL), and concentrated by rotary evaporation. The residues were reconstituted into methanol (150 μL), and then analyzed using a hybrid quadrupole Q-Exactive Orbitrap mass analyzer (Thermo Fisher, Waltham, Mass.), with an electrospray ionization source, employing parallel-reaction monitoring (PRM) to provide high analytical sensitivity.
# TMEM16B = biological target: T1, TMEM16B (Homo sapiens, UniProt Q9NQ90); experiment: TMEM16B fluorescence plate reader assay in FRT cells; type: cell-based
# T1 construct: expressed in transfected cells; host or cells: Fischer Rat Thyroid (FRT) cells co-expressing YFP
# T1 sequence (Q9NQ90 1-998): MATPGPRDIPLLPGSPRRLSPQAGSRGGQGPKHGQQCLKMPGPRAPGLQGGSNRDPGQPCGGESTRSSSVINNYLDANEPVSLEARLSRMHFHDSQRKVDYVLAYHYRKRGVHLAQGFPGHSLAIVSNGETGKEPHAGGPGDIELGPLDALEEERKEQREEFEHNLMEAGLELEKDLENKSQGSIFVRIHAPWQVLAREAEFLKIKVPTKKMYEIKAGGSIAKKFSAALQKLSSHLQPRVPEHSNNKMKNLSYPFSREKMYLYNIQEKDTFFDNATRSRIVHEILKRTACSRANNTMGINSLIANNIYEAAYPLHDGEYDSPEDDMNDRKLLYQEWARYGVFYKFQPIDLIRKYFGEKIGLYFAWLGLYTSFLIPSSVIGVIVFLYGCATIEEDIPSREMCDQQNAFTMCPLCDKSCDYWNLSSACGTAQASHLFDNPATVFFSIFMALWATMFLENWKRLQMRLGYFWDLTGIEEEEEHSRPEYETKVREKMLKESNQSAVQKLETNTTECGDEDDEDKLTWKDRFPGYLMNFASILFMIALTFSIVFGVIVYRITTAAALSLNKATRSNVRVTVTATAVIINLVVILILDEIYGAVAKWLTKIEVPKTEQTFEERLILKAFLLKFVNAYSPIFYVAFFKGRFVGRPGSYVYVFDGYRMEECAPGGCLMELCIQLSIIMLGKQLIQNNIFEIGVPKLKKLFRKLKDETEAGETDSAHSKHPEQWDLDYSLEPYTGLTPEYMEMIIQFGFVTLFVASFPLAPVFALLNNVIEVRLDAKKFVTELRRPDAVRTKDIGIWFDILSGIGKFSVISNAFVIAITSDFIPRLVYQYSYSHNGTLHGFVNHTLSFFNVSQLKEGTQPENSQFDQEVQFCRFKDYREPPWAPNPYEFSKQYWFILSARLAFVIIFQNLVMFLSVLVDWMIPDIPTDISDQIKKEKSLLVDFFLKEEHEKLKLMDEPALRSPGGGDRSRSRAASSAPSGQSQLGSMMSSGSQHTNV
# Experimental: (§1) Concentration-dependent inhibition of TMEM16A measured by short-circuit current assay; TMEM16B and non-TMEM16 anion conductance measured using a fluorescence plate reader assay using FRT and HT-29 cells respectively; cell viability measured in FRT null cells.
# (§2) We further assayed the compound potency on endogenous non-TMEM16A. Ca^2+-activated Cl^− channel in HT-29 cells.
# TMEM16A functional assay. TMEM16A functional plate-reader assay was done as previously described. […] Test compounds (0.5 μl in DMSO) were added to each well at specified concentration. […] The initial rate of I− influx following each of the solution additions was computed from fluorescence data by nonlinear regression. TMEM16B activity was assayed similarly as described using FRT cells co-expressing YFP and TMEM16B.
# [4] = test system: non-TMEM16A Ca2+-activated Cl- channel in HT-29 cells; experiment: Non-TMEM16A CaCC plate reader assay in HT-29 cells expressing YFP; type: cell-based; conditions: Homo sapiens, non-TMEM16 anion conductance, fluorescence plate reader assay
# Experimental: as §1, §2
# Plate reader assays of chloride channel function, CFTR inhibition was assayed as described. […] Activity of non-TMEM16A CaCC was assayed as described in HT-29 cells expressing YFP.
SMILES,"Compound remaining ([1]; rat liver microsomes + NADPH, 10 uM, 180 min)","Metabolic stability compared to Ani-9 (in words) ([1]; time course of compound degradation, rat liver microsomes)",Effect on blood pressure [2],Effect on spontaneous isometric contractions of ileum (mouse ileum),Toxic effect (in words) ([3]; 4 mg/kg IP or oral),"Serum concentration ([3]; 4 mg/kg intraperitoneal, for up to 2 h)","Peak serum concentration ([3]; 4 mg/kg intraperitoneal, peak at 60 min)","Serum concentration ([3]; 4 mg/kg oral, for 3 h)","Peak serum concentration ([3]; 4 mg/kg oral, peak at 2 h)",Detectability in serum (in words) ([3]; after intraperitoneal (IP) or oral administration (PO)),IC50 (TMEM16B),IC50 [4]
"Cc1ccccc1NC(=O)c1c(NC(=O)C(F)(F)Br)sc2c1CCCCC2 [Compound 6bm, 2-(2-Bromo-2,2-difluoro-acetylamino)-5,6,7,8-tetrahydro-4H-cyclohepta[b]thiophene-3-carboxylic acid o-tolylamide]",~30%,remarkably greater stability,acute reduction in blood pressure,strongly inhibited; also recorded: suppression of isometric smooth muscle contractions,No toxic effect was seen,greater than 3.5 μM,6.5 µM,greater than 0.5 μM,1.9 µM,detectable at pharmacologically relevant concentrations,–,–
"Cc1ccccc1NC(=O)c1c(NC(=O)C(F)(F)F)sc2c1CCCCC2 [Compound 6aa, 2-(2,2,2-Trifluoro-acetylamino)-5,6,7,8-tetrahydro-4H-cyclohepta[b]thiophene-3-carboxylic acid o-tolylamide]",–,–,–,–,–,–,–,–,–,–,1400 nM,4000 nM
